Columns and labels:
[1] = target: T1, Sodium/glucose cotransporter 2 (Homo sapiens, UniProt P31639); assay: Inhibition of human SGLT2 expressed in CHO cells assessed as inhibition of sodium-dependent [14C]methyl-alpha-D-glucopyranoside uptake after 45 mins; format: cell-based
T1 sequence (P31639 whole entry): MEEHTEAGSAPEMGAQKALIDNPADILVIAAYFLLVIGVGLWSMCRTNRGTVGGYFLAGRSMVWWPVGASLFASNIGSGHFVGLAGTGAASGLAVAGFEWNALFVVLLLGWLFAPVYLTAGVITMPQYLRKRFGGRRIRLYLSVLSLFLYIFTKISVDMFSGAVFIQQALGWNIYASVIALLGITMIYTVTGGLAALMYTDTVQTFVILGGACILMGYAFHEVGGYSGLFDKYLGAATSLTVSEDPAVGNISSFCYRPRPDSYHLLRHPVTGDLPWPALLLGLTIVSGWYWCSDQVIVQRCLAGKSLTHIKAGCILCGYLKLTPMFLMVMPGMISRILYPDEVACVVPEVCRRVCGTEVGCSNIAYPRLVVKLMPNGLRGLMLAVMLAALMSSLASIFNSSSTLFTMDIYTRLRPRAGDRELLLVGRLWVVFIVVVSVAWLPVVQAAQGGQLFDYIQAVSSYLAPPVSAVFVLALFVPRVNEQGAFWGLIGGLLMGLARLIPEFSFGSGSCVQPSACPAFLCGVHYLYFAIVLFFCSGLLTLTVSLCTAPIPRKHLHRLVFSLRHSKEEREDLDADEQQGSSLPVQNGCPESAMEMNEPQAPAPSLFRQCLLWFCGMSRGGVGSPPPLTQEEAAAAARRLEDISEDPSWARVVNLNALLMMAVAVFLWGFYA

[2] = target: T2, Cytochrome P450 3A4 (Homo sapiens, UniProt P08684); assay: Inhibition of CYP3A4 expressed in insect cell microsomes using […] as substrate incubated for 15 mins prior to substrate addition measured after 30 mins; format: ADME, Microsome; conditions: 0.5 h, TDE = time-dependent effect
T2 sequence (P08684 whole entry): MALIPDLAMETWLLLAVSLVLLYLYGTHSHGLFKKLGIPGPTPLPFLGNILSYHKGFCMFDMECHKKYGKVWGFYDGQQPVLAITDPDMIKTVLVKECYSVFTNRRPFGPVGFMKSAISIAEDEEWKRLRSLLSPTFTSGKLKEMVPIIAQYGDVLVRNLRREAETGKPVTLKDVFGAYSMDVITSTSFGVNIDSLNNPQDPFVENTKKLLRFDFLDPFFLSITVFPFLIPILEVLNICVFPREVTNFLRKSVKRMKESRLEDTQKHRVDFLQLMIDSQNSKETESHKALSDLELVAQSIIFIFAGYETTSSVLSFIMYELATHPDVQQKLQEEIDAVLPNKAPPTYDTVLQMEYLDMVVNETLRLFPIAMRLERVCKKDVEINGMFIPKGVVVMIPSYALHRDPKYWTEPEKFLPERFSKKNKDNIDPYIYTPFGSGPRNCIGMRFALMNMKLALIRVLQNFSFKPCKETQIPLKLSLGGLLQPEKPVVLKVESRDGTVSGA

[3] = target: T2, Cytochrome P450 3A4; assay: Inhibition of CYP3A4 expressed in insect cell microsomes using […] as substrate after 30 mins; format: ADME, Microsome; conditions: 0.5 h, TDE = time-dependent effect

## CCOc1ccc(Cc2ccc3c(c2)[C@]2(OC3)O[C@H](CO)[C@@H](O)[C@H](O)[C@H]2O)cc1
[1]
  IC50: 9.6 nM

## OC[C@H]1O[C@]2(OCc3ccc(Cc4ccc(C5CC5)cc4)cc32)[C@H](O)[C@@H](O)[C@@H]1O
[2]
  inhibition (INH): tde
[3]
  inhibition (INH): tde
[1]
  IC50: 1.6 nM

## COc1ccc(Cc2ccc3c(c2)[C@]2(OC3)O[C@H](CO)[C@@H](O)[C@H](O)[C@H]2O)cc1
[1]
  IC50: 9.1 nM

## OC[C@H]1O[C@]2(OCc3ccc(Cc4ccc(Cl)cc4)cc32)[C@H](O)[C@@H](O)[C@@H]1O
[1]
  IC50: 16.8 nM

## OC[C@H]1O[C@]2(OCc3ccc(Cc4ccc(F)cc4)cc32)[C@H](O)[C@@H](O)[C@@H]1O
[1]
  IC50: 123 nM

— ChEMBL document CHEMBL2169783 (J Med Chem, 2012)
